In ChEMBL document CHEMBL4184333, “Expanding Benzoxazole-Based Inosine 5'-Monophosphate Dehydrogenase (IMPDH) Inhibitor Structure-Activity As Potential Antituberculosis Agents” (J Med Chem, 2018):
Converted amounts (≈) assume the structure as drawn. The source made the active and inactive calls. The rule behind the calls is not given here.

How the values were obtained:
[1] = target: Inosine-5'-monophosphate dehydrogenase 2 (Homo sapiens, UniProt P12268); assay: Inhibition of human IMPDH2 using IMP as substrate by spectrophotometric method; conditions: read-out: Ki(app)
GMP reductase 2 = target: T1, GMP reductase 2 (Homo sapiens, UniProt Q9P2T1); assay: Inhibition of human GMPR2 using GMP as substrate by spectrophotometric method; conditions: read-out: Ki(app)
T1 sequence (Q9P2T1 whole entry): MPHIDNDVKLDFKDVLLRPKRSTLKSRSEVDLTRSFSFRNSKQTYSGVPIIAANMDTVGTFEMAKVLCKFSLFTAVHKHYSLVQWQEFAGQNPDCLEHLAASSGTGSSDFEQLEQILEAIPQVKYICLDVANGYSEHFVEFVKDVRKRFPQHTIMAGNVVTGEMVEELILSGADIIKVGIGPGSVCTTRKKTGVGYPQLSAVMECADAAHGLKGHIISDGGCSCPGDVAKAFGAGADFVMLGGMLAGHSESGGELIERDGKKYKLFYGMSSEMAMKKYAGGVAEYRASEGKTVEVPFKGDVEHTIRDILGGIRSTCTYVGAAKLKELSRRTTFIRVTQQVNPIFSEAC

[2] = system: Mycobacterium tuberculosis; assay: Antitubercular activity against Mycobacterium tuberculosis H37Rv ATCC 27294 using GAST/Fe medium after 1 week in absence of guanine by broth microdilution method; format: functional; conditions: H37Rv ATCC 27294, 168 h
[3] = system: Mycobacterium tuberculosis; assay: Antitubercular activity against Mycobacterium tuberculosis H37Rv ATCC 27294 using GAST/Fe medium after 1 week in presence of guanine by broth microdilution method; format: functional; conditions: H37Rv ATCC 27294, 168 h
[4] = system: Mycobacterium tuberculosis; assay: Antitubercular activity against Mycobacterium tuberculosis H37Rv ATCC 27294 using 7H9/ADC/Tween medium after 1 week in absence of guanine by broth microdilution method; format: functional; conditions: H37Rv ATCC 27294, 168 h
[5] = system: Mycobacterium tuberculosis; assay: Antitubercular activity against Mycobacterium tuberculosis H37Rv ATCC 27294 using 7H9/ADC/Tween medium after 1 week in presence of guanine by broth microdilution method; format: functional; conditions: H37Rv ATCC 27294, 168 h
[6] = system: Mycobacterium tuberculosis; assay: Antitubercular activity against Mycobacterium tuberculosis H37Rv ATCC 27294 using 7H9/ADC/Tween medium after 1 week in absence of guanine and presence of anhydrotetracycline by Alamar blue assay; format: functional; conditions: H37Rv ATCC 27294, 168 h
[7] = system: Mycobacterium tuberculosis; assay: Antitubercular activity against Mycobacterium tuberculosis H37Rv ATCC 27294 using GAST/Fe medium after 2 weeks in absence of guanine by broth microdilution method; format: functional, organism-based
HepG2 = assay: Cytotoxicity against human HepG2 cells assessed as LDH release at 25 uM after 24 hrs relative to control; format: cell-based; conditions: hepg2, 24 h
[8] = Cytotoxicity against human HepG2 cells after 24 hrs by LDH release assay; format: cell-based; conditions: HepG2 cells, read-out: LD50
[9] = system: Mycobacterium tuberculosis; assay: Antitubercular activity against Mycobacterium tuberculosis H37Rv ATCC 27294 using 7H9/ADC/Tween medium after 2 weeks in absence of guanine by broth microdilution method; format: functional, organism-based

SMILES	Ki [1] [µM]	Ki (GMP reductase 2) [µM]	MIC [2] [µM]	MIC [3] [µM]	MIC [4] [µM]	MIC [5] [µM]	MIC [6] [µM]	Activity [7]	Activity (HepG2) [%]	CC50 at 24 h [8] [µM]	Activity [9]
COc1ccc(OC(C)C(=O)Nc2ccc3oc(-c4ccncc4)nc3c2)cc1 (stereo not drawn)	> 5	> 5	5.3 (≈ 2.06 µg/mL)	24	10 to 12.5 (≈ 3.89 to 4.87 µg/mL)	21	12.5	–	–	–	–
C[C@H](Oc1cccc(Cl)c1Cl)C(=O)Nc1ccc2oc(-c3ccc(C(=O)O)cc3)nc2c1	> 5	> 5	4 (≈ 1.89 µg/mL)	5	≥ 25	> 50	–	Active	–	–	–
C[C@H](Oc1cccc2c1B(O)OC2)C(=O)Nc1ccc2oc(-c3ccc(C#N)cc3)nc2c1	> 5	> 5	–	–	–	–	–	–	–	–	–
C[C@H](Oc1ccc(F)c(F)c1F)C(=O)Nc1ccc2oc(-c3ccc(C#N)cc3)nc2c1	> 5	> 5	> 50	> 50	> 50	> 50	–	–	–	–	–
COc1ccc(Cc2nc3cc(NC(=O)[C@H](C)Oc4cccc(Cl)c4Cl)ccc3o2)cc1	> 5	> 5	–	–	–	–	–	–	–	–	–
COc1ccc(-c2nc3cc(NC(=O)[C@H](C)Oc4cccc(Cl)c4Cl)ccc3o2)cn1	> 5	> 5	7 (≈ 3.21 µg/mL)	9	6 (≈ 2.75 µg/mL)	> 25	–	–	–	–	–
C[C@H](Oc1cccc(Cl)c1Cl)C(=O)Nc1ccc2oc(-c3cc[n+]([O-])cc3)nc2c1	> 5	> 5	–	–	–	–	–	–	–	–	–
C[C@H](Oc1cccc(Cl)c1Cl)C(=O)Nc1ccc2oc(-c3ccccc3O)nc2c1	> 5	> 5	–	–	–	–	–	–	–	–	–
COc1ccc(-c2nc3cc(NC(=O)[C@H](C)Oc4ccccc4CN)ccc3o2)cc1	> 5	> 5	9.4 (≈ 3.92 µg/mL)	16	5.5 (≈ 2.3 µg/mL)	9.4	–	–	–	–	–
C[C@H](Oc1cccc(F)c1F)C(=O)Nc1ccc2oc(-c3ccc(O)cc3)nc2c1	> 5	> 5	6 (≈ 2.46 µg/mL)	19	7 (≈ 2.87 µg/mL)	> 30	–	–	–	–	–
C[C@H](Oc1cccc(Cl)c1Cl)C(=O)Nc1ccc2oc(-c3ccc(C(N)=O)cc3)nc2c1	> 5	> 5	–	–	–	–	–	–	–	–	–
COc1ccc(-c2cn3cc(NC(=O)[C@H](C)Oc4cccc(Cl)c4Cl)ccc3n2)cc1	> 5	> 5	–	–	–	–	–	–	–	–	–
C[C@H](Oc1cccc(Cl)c1Cl)C(=O)Nc1ccc2oc(-c3ccc(C(=O)NN)cc3)nc2c1	> 5	> 5	–	–	–	–	–	–	–	–	–
C[C@H](Oc1cccc(Cl)c1Cl)C(=O)Nc1ccc2oc(-c3ccc(O)cc3)nc2c1	> 5	> 5	–	–	–	–	–	–	–	–	–
COc1ccc(-c2nc3cc(NC(=O)[C@H](C)Oc4cccc(F)c4F)ccc3o2)cn1	> 5	> 5	6 (≈ 2.55 µg/mL)	8	> 50	> 50	–	–	–	–	–
C[C@H](Oc1cccc(F)c1F)C(=O)Nc1ccc2oc(-c3ccc(C#N)cc3)nc2c1	2	> 5	3 (≈ 1.26 µg/mL)	6.3	1.5 (≈ 0.629 µg/mL)	4	–	–	9 to 13	> 25	–
C[C@H](Oc1cccc(Cl)c1Cl)C(=O)Nc1ccc2oc(-c3ccc(C(=O)NO)cc3)nc2c1	> 5	> 5	3 (≈ 1.46 µg/mL)	6	30 (≈ 14.6 µg/mL)	> 50	–	Active	–	–	–
C[C@H](Oc1cccc(F)c1F)C(=O)Nc1ccc2oc(-c3ccc(F)cc3)nc2c1	> 5	> 5	> 50	> 50	> 50	> 50	–	–	–	–	–
C[C@H](Oc1cccc(Cl)c1Cl)C(=O)Nc1ccc2oc(-c3ccc(/C(N)=N\O)cc3)nc2c1	> 5	> 5	25 (≈ 12.1 µg/mL)	25	> 50	> 50	–	–	–	–	–
C[C@H](Oc1cccc(Cl)c1Cl)C(=O)Nc1ccc2oc(-c3ccncc3)nc2c1	> 5	> 5	9.4 (≈ 4.03 µg/mL)	37	16 (≈ 6.85 µg/mL)	28	–	–	–	–	–
C[C@H](Oc1ccccc1C#N)C(=O)Nc1ccc2oc(-c3ccncc3)nc2c1	> 5	> 5	–	–	–	–	–	–	–	–	–

SMILES	Ki [1] [µM]	Ki (GMP reductase 2) [µM]	MIC [2] [µM]	MIC [3] [µM]	MIC [4] [µM]	MIC [5] [µM]	MIC [6] [µM]	Activity [7]	Activity (HepG2) [%]	CC50 at 24 h [8] [µM]	Activity [9]
C[C@H](Oc1cccc(Cl)c1Cl)C(=O)Nc1ccc2oc(-c3ccc(-c4noc(=O)[nH]4)cc3)nc2c1	> 5	> 5	–	–	–	–	–	–	–	–	–
C[C@H](Oc1cccc(Cl)c1Cl)C(=O)Nc1ccc2oc(-c3ccc(OC(F)(F)F)cc3)nc2c1	> 5	> 5	> 50	> 50	> 50	> 50	–	–	–	–	–
COc1ccc(-c2nc3cc(NC(=O)[C@H](C)Oc4cccc(Cl)c4Cl)ccc3o2)cc1	> 5	> 5	> 50	> 50	> 50	> 50	–	–	–	–	–
C[C@H](Oc1cccc(Cl)c1Cl)C(=O)Nc1ccc2oc(-c3ccc(CN)cc3)nc2c1	> 5	> 5	11 (≈ 5.02 µg/mL)	11	25 (≈ 11.4 µg/mL)	25	–	–	–	–	–
C[C@H](Oc1cccc(Cl)c1Cl)C(=O)Nc1ccc2oc(-c3ccc(F)cc3)nc2c1	> 5	> 5	> 50	> 50	> 50	> 50	–	–	–	–	–
COC(=O)c1ccc(-c2nc3cc(NC(=O)[C@H](C)Oc4cccc(Cl)c4Cl)ccc3o2)cc1	> 5	> 5	–	–	–	–	–	–	–	–	–
COc1ccc(-c2nc3cc(NC(=O)[C@H](C)Oc4ccccc4C#N)ccc3o2)cc1	> 5	> 5	3.1 (≈ 1.28 µg/mL)	6.3	1.2 (≈ 0.496 µg/mL)	4.7	–	Active	9 to 13	> 25	Active
C[C@H](Oc1cccc(Cl)c1Cl)C(=O)Nc1ccc2oc(-c3ccc(-c4n[nH]c(=O)o4)cc3)nc2c1	2.9	> 5	> 50	> 50	> 50	> 50	–	–	–	–	–
CCOC(=O)COc1cccc(-c2nc3cc(NC(=O)[C@H](C)Oc4cccc(Cl)c4Cl)ccc3o2)c1	> 5	> 5	0.9 (≈ 0.476 µg/mL)	1.4	1.6 (≈ 0.847 µg/mL)	1.6	–	–	–	–	–
C[C@H](Oc1ccccc1O)C(=O)Nc1ccc2oc(-c3ccc(C#N)cc3)nc2c1	> 5	> 5	22 (≈ 8.79 µg/mL)	25	9.4 (≈ 3.75 µg/mL)	22	–	–	–	–	–
C[C@H](Oc1cccc(Cl)c1Cl)C(=O)Nc1ccc2oc(-c3cccc(O)c3)nc2c1	> 5	> 5	–	–	–	–	–	–	–	–	–
C[C@H](Oc1ccccc1OCc1ccccc1)C(=O)Nc1ccc2oc(-c3ccc(C#N)cc3)nc2c1	> 5	> 5	–	–	–	–	–	–	–	–	–
C[C@H](Oc1cccc(F)c1F)C(=O)Nc1ccc2oc(-c3ccncc3)nc2c1	> 5	> 5	4 (≈ 1.58 µg/mL)	6.3	1.9 (≈ 0.751 µg/mL)	4	–	Active	–	–	Active
C[C@H](Oc1cccc(Cl)c1Cl)C(=O)Nc1ccc2oc(-c3ccc(C#N)cc3)nc2c1	2.3	> 5	4 (≈ 1.81 µg/mL)	5	3 (≈ 1.36 µg/mL)	6	–	–	–	–	–
C[C@H](Oc1cccc(Cl)c1Cl)C(=O)Nc1ccc2oc(-c3cccc(OCC(=O)O)c3)nc2c1	> 5	> 5	–	–	–	–	–	–	–	–	–
COc1ccc(-c2nc3cc(NC(=S)[C@H](C)Oc4cccc(Cl)c4Cl)ccc3o2)cc1	> 5	> 5	37 (≈ 17.5 µg/mL)	> 50	> 50	> 50	–	–	–	–	–
COc1ccc(-c2nc3cc(NC(=O)[C@H](C)Oc4cccc(F)c4F)ccc3o2)cc1	> 5	> 5	5 (≈ 2.12 µg/mL)	8	4 (≈ 1.7 µg/mL)	14	–	–	–	–	–
C[C@H](Nc1cccc(Cl)c1Cl)C(=O)Nc1ccc2oc(-c3ccncc3)nc2c1	> 5	> 5	6.7 (≈ 2.86 µg/mL)	50	12 (≈ 5.13 µg/mL)	35	–	–	–	–	–
C[C@H](Nc1cccc(Cl)c1Cl)C(=O)Nc1ccc2oc(-c3ccc(C#N)cc3)nc2c1	3.3	> 5	4 (≈ 1.81 µg/mL)	13	3 (≈ 1.35 µg/mL)	6	–	Active	–	–	Active
C[C@H](Oc1cccc(F)c1C#N)C(=O)Nc1ccc2oc(-c3ccncc3)nc2c1	> 5	> 5	6 (≈ 2.41 µg/mL)	11	4 (≈ 1.61 µg/mL)	8	–	–	–	–	–
